{
  "source": "PubChem BioAssay (NCI)",
  "assay_in_all_cases": "growth of human tumour cells (NCI), 48 h",
  "key": {"OVCAR-3 ovarian": {"test_system": "OVCAR-3 ovarian"}, "UACC-257 melanoma": {"test_system": "UACC-257 melanoma"}, "M14 melanoma": {"test_system": "M14 melanoma"}, "CCRF-CEM leukemia": {"test_system": "CCRF-CEM leukemia"}, "T-47D breast": {"test_system": "T-47D breast"}, "UO-31 renal": {"test_system": "UO-31 renal"}, "SW-620 colon": {"test_system": "SW-620 colon"}, "HCC-2998 colon": {"test_system": "HCC-2998 colon"}, "786-0 renal": {"test_system": "786-0 renal"}, "MDA-MB-435": {"test_system": "MDA-MB-435"}, "UACC-62 melanoma": {"test_system": "UACC-62 melanoma"}, "SF-268 CNS": {"test_system": "SF-268 CNS"}, "NCI-H522 lung": {"test_system": "NCI-H522 lung"}, "TK-10 renal": {"test_system": "TK-10 renal"}, "SK-MEL-2 melanoma": {"test_system": "SK-MEL-2 melanoma"}, "SF-295 CNS": {"test_system": "SF-295 CNS"}, "A549 NSCLC": {"test_system": "A549 NSCLC"}, "MOLT-4 leukemia": {"test_system": "MOLT-4 leukemia"}, "NCI-H460 lung": {"test_system": "NCI-H460 lung"}, "MDA-MB-231 breast": {"test_system": "MDA-MB-231 breast"}, "OVCAR-4 ovarian": {"test_system": "OVCAR-4 ovarian"}, "KM12 colon": {"test_system": "KM12 colon"}, "SNB-19 CNS": {"test_system": "SNB-19 CNS"}, "SK-MEL-28 melanoma": {"test_system": "SK-MEL-28 melanoma"}, "LOX IMVI melanoma": {"test_system": "LOX IMVI melanoma"}, "HT29 colon": {"test_system": "HT29 colon"}, "CAKI-1 renal": {"test_system": "CAKI-1 renal"}, "SK-OV-3 ovarian": {"test_system": "SK-OV-3 ovarian"}, "HCT-15 colon": {"test_system": "HCT-15 colon"}, "EKVX NSCLC": {"test_system": "EKVX NSCLC"}, "BT-549 breast": {"test_system": "BT-549 breast"}, "DU-145 prostate": {"test_system": "DU-145 prostate"}, "ACHN renal": {"test_system": "ACHN renal"}, "SK-MEL-5 melanoma": {"test_system": "SK-MEL-5 melanoma"}, "SNB-75 CNS": {"test_system": "SNB-75 CNS"}, "NCI-H23 lung": {"test_system": "NCI-H23 lung"}, "OVCAR-5 ovarian": {"test_system": "OVCAR-5 ovarian"}, "SR leukemia": {"test_system": "SR leukemia"}, "HS 578T breast": {"test_system": "HS 578T breast"}, "A498 renal": {"test_system": "A498 renal"}, "HCT-116 colon": {"test_system": "HCT-116 colon"}},
  "note": "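Five concentrations, 48 hours, 96-well plates. GI50 marks 50% less growth. At the TGI there is no net growth.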",
  "data": [
    {"smiles": "Nc1nc(Nc2ccc3c(c2)CC[C@@H](N2CCCC2)CC3)nn1-c1cc2c(nn1)-c1ccccc1CCC2", "values": [
      {"measurement": "GI50", "setting": "OVCAR-3 ovarian", "result": 1.74, "unit": "µM"},
      {"measurement": "TGI", "setting": "OVCAR-3 ovarian", "result": 3.36, "unit": "µM"},
      {"measurement": "GI50", "setting": "UACC-257 melanoma", "result": 1.89, "unit": "µM"},
      {"measurement": "TGI", "setting": "UACC-257 melanoma", "result": 3.66, "unit": "µM"},
      {"measurement": "GI50", "setting": "M14 melanoma", "result": 1.43, "unit": "µM"},
      {"measurement": "TGI", "setting": "M14 melanoma", "result": 3, "unit": "µM"},
      {"measurement": "GI50", "setting": "CCRF-CEM leukemia", "result": 0.478, "unit": "µM"},
      {"measurement": "TGI", "setting": "CCRF-CEM leukemia", "result": 2.53, "unit": "µM"},
      {"measurement": "GI50", "setting": "T-47D breast", "result": 2.16, "unit": "µM"},
      {"measurement": "TGI", "setting": "T-47D breast", "result": 5.1, "unit": "µM"},
      {"measurement": "GI50", "setting": "UO-31 renal", "result": 0.936, "unit": "µM"},
      {"measurement": "TGI", "setting": "UO-31 renal", "result": 2.19, "unit": "µM"},
      {"measurement": "GI50", "setting": "SW-620 colon", "result": 1.7, "unit": "µM"},
      {"measurement": "TGI", "setting": "SW-620 colon", "result": 3.44, "unit": "µM"},
      {"measurement": "GI50", "setting": "HCC-2998 colon", "result": 1.61, "unit": "µM"},
      {"measurement": "TGI", "setting": "HCC-2998 colon", "result": 3.1, "unit": "µM"},
      {"measurement": "GI50", "setting": "786-0 renal", "result": 1.55, "unit": "µM"},
      {"measurement": "TGI", "setting": "786-0 renal", "result": 3.28, "unit": "µM"},
      {"measurement": "GI50", "setting": "MDA-MB-435", "result": 1.69, "unit": "µM"},
      {"measurement": "TGI", "setting": "MDA-MB-435", "result": 3.1, "unit": "µM"},
      {"measurement": "GI50", "setting": "UACC-62 melanoma", "result": 1.89, "unit": "µM"},
      {"measurement": "TGI", "setting": "UACC-62 melanoma", "result": 3.67, "unit": "µM"},
      {"measurement": "GI50", "setting": "SF-268 CNS", "result": 1.44, "unit": "µM"},
      {"measurement": "TGI", "setting": "SF-268 CNS", "result": 3.26, "unit": "µM"},
      {"measurement": "GI50", "setting": "NCI-H522 lung", "result": 1.75, "unit": "µM"},
      {"measurement": "TGI", "setting": "NCI-H522 lung", "result": 3.79, "unit": "µM"},
      {"measurement": "GI50", "setting": "TK-10 renal", "result": 1.35, "unit": "µM"},
      {"measurement": "TGI", "setting": "TK-10 renal", "result": 2.97, "unit": "µM"},
      {"measurement": "GI50", "setting": "SK-MEL-2 melanoma", "result": 1.93, "unit": "µM"},
      {"measurement": "TGI", "setting": "SK-MEL-2 melanoma", "result": 3.89, "unit": "µM"},
      {"measurement": "GI50", "setting": "SF-295 CNS", "result": 1.88, "unit": "µM"},
      {"measurement": "TGI", "setting": "SF-295 CNS", "result": 3.51, "unit": "µM"},
      {"measurement": "GI50", "setting": "A549 NSCLC", "result": 1.63, "unit": "µM"},
      {"measurement": "TGI", "setting": "A549 NSCLC", "result": 3.57, "unit": "µM"},
      {"measurement": "GI50", "setting": "MOLT-4 leukemia", "result": 0.82, "unit": "µM"},
      {"measurement": "TGI", "setting": "MOLT-4 leukemia", "result": 3.63, "unit": "µM"},
      {"measurement": "GI50", "setting": "NCI-H460 lung", "result": 1.31, "unit": "µM"},
      {"measurement": "TGI", "setting": "NCI-H460 lung", "result": 2.82, "unit": "µM"},
      {"measurement": "GI50", "setting": "MDA-MB-231 breast", "result": 1.82, "unit": "µM"},
      {"measurement": "TGI", "setting": "MDA-MB-231 breast", "result": 3.55, "unit": "µM"},
      {"measurement": "GI50", "setting": "OVCAR-4 ovarian", "result": 1.44, "unit": "µM"},
      {"measurement": "TGI", "setting": "OVCAR-4 ovarian", "result": 3.31, "unit": "µM"},
      {"measurement": "GI50", "setting": "KM12 colon", "result": 1.83, "unit": "µM"},
      {"measurement": "TGI", "setting": "KM12 colon", "result": 3.71, "unit": "µM"},
      {"measurement": "GI50", "setting": "SNB-19 CNS", "result": 1.83, "unit": "µM"},
      {"measurement": "TGI", "setting": "SNB-19 CNS", "result": 3.45, "unit": "µM"},
      {"measurement": "GI50", "setting": "SK-MEL-28 melanoma", "result": 1.77, "unit": "µM"},
      {"measurement": "TGI", "setting": "SK-MEL-28 melanoma", "result": 3.27, "unit": "µM"},
      {"measurement": "GI50", "setting": "LOX IMVI melanoma", "result": 1.5, "unit": "µM"},
      {"measurement": "TGI", "setting": "LOX IMVI melanoma", "result": 2.92, "unit": "µM"},
      {"measurement": "GI50", "setting": "HT29 colon", "result": 1.08, "unit": "µM"},
      {"measurement": "TGI", "setting": "HT29 colon", "result": 4.01, "unit": "µM"},
      {"measurement": "GI50", "setting": "CAKI-1 renal", "result": 1.22, "unit": "µM"},
      {"measurement": "TGI", "setting": "CAKI-1 renal", "result": 2.5, "unit": "µM"},
      {"measurement": "GI50", "setting": "SK-OV-3 ovarian", "result": 1.66, "unit": "µM"},
      {"measurement": "TGI", "setting": "SK-OV-3 ovarian", "result": 3.34, "unit": "µM"},
      {"measurement": "GI50", "setting": "HCT-15 colon", "result": 0.798, "unit": "µM"},
      {"measurement": "TGI", "setting": "HCT-15 colon", "result": 2.26, "unit": "µM"},
      {"measurement": "GI50", "setting": "EKVX NSCLC", "result": 1.68, "unit": "µM"},
      {"measurement": "TGI", "setting": "EKVX NSCLC", "result": 3.29, "unit": "µM"},
      {"measurement": "GI50", "setting": "BT-549 breast", "result": 1.6, "unit": "µM"},
      {"measurement": "TGI", "setting": "BT-549 breast", "result": 3.36, "unit": "µM"},
      {"measurement": "GI50", "setting": "DU-145 prostate", "result": 1.35, "unit": "µM"},
      {"measurement": "TGI", "setting": "DU-145 prostate", "result": 3, "unit": "µM"},
      {"measurement": "GI50", "setting": "ACHN renal", "result": 0.878, "unit": "µM"},
      {"measurement": "TGI", "setting": "ACHN renal", "result": 2.11, "unit": "µM"},
      {"measurement": "GI50", "setting": "SK-MEL-5 melanoma", "result": 1.72, "unit": "µM"},
      {"measurement": "TGI", "setting": "SK-MEL-5 melanoma", "result": 3.11, "unit": "µM"},
      {"measurement": "GI50", "setting": "SNB-75 CNS", "result": 1.22, "unit": "µM"},
      {"measurement": "TGI", "setting": "SNB-75 CNS", "result": 2.48, "unit": "µM"},
      {"measurement": "GI50", "setting": "NCI-H23 lung", "result": 1.72, "unit": "µM"},
      {"measurement": "TGI", "setting": "NCI-H23 lung", "result": 3.56, "unit": "µM"},
      {"measurement": "GI50", "setting": "OVCAR-5 ovarian", "result": 1.63, "unit": "µM"},
      {"measurement": "TGI", "setting": "OVCAR-5 ovarian", "result": 3.29, "unit": "µM"},
      {"measurement": "GI50", "setting": "SR leukemia", "result": 0.441, "unit": "µM"},
      {"measurement": "TGI", "setting": "SR leukemia", "result": 2.69, "unit": "µM"},
      {"measurement": "GI50", "setting": "HS 578T breast", "result": 1.79, "unit": "µM"},
      {"measurement": "TGI", "setting": "HS 578T breast", "result": 4.86, "unit": "µM"},
      {"measurement": "GI50", "setting": "A498 renal", "result": 0.0249, "unit": "µM"},
      {"measurement": "TGI", "setting": "A498 renal", "result": 1.44, "unit": "µM"},
      {"measurement": "GI50", "setting": "HCT-116 colon", "result": 1.5, "unit": "µM"},
      {"measurement": "TGI", "setting": "HCT-116 colon", "result": 3.08, "unit": "µM"}
    ]}
  ]
}
